What was measured:
[1] = system: human colon cancer cell strain Colo205; assay: In vitro SRB tumor cell growth inhibition (GI50); type: cell-based; details: Colo 205 cells, 48 h
Procedure: (§1) Human colon cancer cell strains (Colo205 and HCT-116), human breast cancer cell strains (MCF-7 and MDA-MB435), human lung cancer cell strains (A549, 95D and NCI460), human ovarian cancer cell strains (OVCAR-5, OVCAR-8, HO8910 and SKOV-3), human leukemia (HL-60 and K562), human prostate cancer (DU145 and BXPC-3), human uterine cancer (Hela), human pancreatic cancer (PANC-1), human hepatoma (HepG 2) were all obtained from ATCC. Colo205, HL-60, K562 cells were cultured in RPMI 1640 containing 2 mM/L glutamine, 10% FBS, 1.0 mM sodium pyruvate. HCT-116, MCF-7, A549, 95D, HO8910, NCI460, OVCAR-5, OVCAR-8, DU145, BXPC-3, Hela, PANC-1, HepG2 cells were cultured in DMEM containing 2 mM/L glutamine, 10% FBS. MDA-MB435 cells were cultured in L-15 containing 2 mM/L glutamine, 10% FBS. SKOV-3 cells were cultured in McCoy's containing 2 mM/L glutamine, 10% FBS. Colo205, HL-60 and K562 cells were seeded in 96-well plates, 150 μL/well and 8000 cells/well, and the 96-well plates were pre-incubated in an incubator at 37° C. with 5% CO2, 100% relative humidity for 24 hours. HCT-116, MCF-7, NCI460, OVCAR-5, OVCAR-8, Hela, HepG 2 and MDA-MB435 cells were seeded in 96-well plates, 5000 cells/well; A549, 95D, HO8910, DU145, BXPC-3, PANC-1 and SKOV-3 cells were seeded in 96-well plates, 10000 cells/well, and the 96-well plates were pre-incubated in an incubator at 37° C. with 5% CO2, 100% relative humidity for 24 hours, to allow the cells to adhere.
(§2) 50 μL of pre-cooled 50% (mass/volume) TCA was added into the time zero control wells for each cell strain to fix the cells. To other wells, 50 μL of various concentrations of compounds were added, and maintained for 48 h, wherein each drug concentration was in triplicate, and there were blank control wells (cell culture medium without cells), drug-free control wells (with no drugs but the same volume of complete medium) and positive drug BSI-201 control wells, and the plates were incubated in an incubator at 37° C. with 5% CO2, full humidity (100% relative humidity) for 48 hours
(§3) 50 μL pre-cooled 50% (mass/volume) TCA was added onto the surface of the culture medium to fix the cells, which was then placed at 4° C. for 1 h. The supernatant was removed and each well was washed with deionized water for 5 times to remove TCA, serum proteins, etc. After dried in the air, about 100 μL enough amount of 0.4% SRB (formulated with 1% acetic acid) was added into each well, and was placed at room temperature for 20 to 30 min. Liquid in each well was discarded and each well was rapidly washed with 1% acetic acid for five times, to remove unbound dye until the unbound dye was completely rinsed clean. After dried in the air until the moisture was invisible, each well was added 200 μL Tris base to dissolve, shaken on a plate oscillator for 5 min or mixed by beating up and down with a pipette tip, and then measured on the multi-function instruction (M5 Detection System, MD Group Ltd.) with a detection wavelength of 515 nm, zero adjusted with 690 nm blank control.
(§4) The dose-response curve was plotted by XL-fit to determine the GI50 value.

[2] = system: human prostate cancer DU145; assay: In vitro SRB tumor cell growth inhibition (GI50); type: cell-based; details: DU145 cells
Procedure: as §1, §2, §3, §4

[3] = system: human lung cancer cell strain A549; assay: In vitro SRB tumor cell growth inhibition (GI50); type: cell-based; details: A549 cells, 48 h
Procedure: as §1, §2, §3, §4

[4] = system: human breast cancer cell strain MCF-7; assay: In vitro SRB tumor cell growth inhibition (GI50); type: cell-based; details: MCF-7 cells
Procedure: as §1, §2, §3, §4

[5] = system: human ovarian cancer cell strain OVCAR-5; assay: In vitro SRB tumor cell growth inhibition (GI50); type: cell-based; details: OVCAR-5 cells, 48 h
Procedure: as §1, §2, §3, §4

human leukemia HL-60 = assay: In vitro SRB tumor cell growth inhibition (GI50); type: cell-based; details: HL-60 cells
Procedure: as §1, §2, §3, §4

[6] = system: human prostate cancer BXPC-3; assay: In vitro SRB tumor cell growth inhibition (GI50); type: cell-based; details: BXPC-3 cells, 48 h
Procedure: as §1, §2, §3, §4

[7] = system: human ovarian cancer cell strain HO8910; assay: In vitro SRB tumor cell growth inhibition (GI50); type: cell-based; details: HO-8910, HO8910 cells, 48 h
Procedure: as §1, §2, §3, §4

[8] = system: human breast cancer cell strain MDA-MB435; assay: In vitro SRB tumor cell growth inhibition (GI50); type: cell-based; details: Homo sapiens, MDA-MB-435, 48 h, MDA-MB435 cells
Procedure: as §1, §2, §3, §4

[9] = system: human lung cancer cell strain 95D; assay: In vitro SRB tumor cell growth inhibition (GI50); type: cell-based; details: 48 h, 95D cells
Procedure: as §1, §2, §3, §4

[10] = system: human ovarian cancer cell strain SKOV-3; assay: In vitro SRB tumor cell growth inhibition (GI50); type: cell-based; details: SK-OV-3, SKOV-3 cells, 48 h
Procedure: as §1, §2, §3, §4

human hepatoma HepG 2 = assay: In vitro SRB tumor cell growth inhibition (GI50); type: cell-based; details: HepG2, HepG 2 cells, 48 h
Procedure: as §1, §2, §3, §4

[11] = system: human uterine cancer Hela; assay: In vitro SRB tumor cell growth inhibition (GI50); type: cell-based; details: 48 h, Hela cells
Procedure: as §1, §2, §3, §4

[12] = system: human lung cancer cell strain NCI-460; assay: In vitro SRB tumor cell growth inhibition (GI50); type: cell-based; details: NCI-460 cells
Procedure: as §1, §2, §3, §4

[13] = system: human pancreatic cancer PANC-1; assay: In vitro SRB tumor cell growth inhibition (GI50); type: cell-based; details: PANC-1 cells
Procedure: as §1, §2, §3, §4

[14] = system: human ovarian cancer cell strain OVCAR-8; assay: In vitro SRB tumor cell growth inhibition (GI50); type: cell-based; details: Homo sapiens, OVCAR-8, 48 h, OVCAR-8 cells
Procedure: as §1, §2, §3, §4

human leukemia K562 = assay: In vitro SRB tumor cell growth inhibition (GI50); type: cell-based; details: K562 cells
Procedure: as §1, §2, §3, §4

18 tumor cell strains = assay: In vitro efficacy screening, summary over the tumor cell strains; type: cell-based, human; details: in vitro screening; for inhibitory effects on tumor cell proliferation (in words): BSI-201 as positive drug
Procedure: as §1, §2, §3, §4

[15] = system: human colon cancer cell strain HCT-116; assay: In vitro SRB tumor cell growth inhibition (GI50); type: cell-based; details: HCT-116 cells
Procedure: as §1, §2, §3, §4

GI50 [1] | GI50 ([2]; Homo sapiens, DU-145, 48 h) | GI50 [3] | GI50 ([4]; Homo sapiens, MCF7, 48 h) | GI50 (human leukemia HL-60; Homo sapiens, HL-60, 48 h) | GI50 [8] | GI50 ([9]; Homo sapiens, 95-D) | GI50 [10] | GI50 ([11]; Homo sapiens, HeLa) | GI50 ([13]; Homo sapiens, PANC-1, 48 h) | GI50 [14] | GI50 (human leukemia K562; Homo sapiens, K562, 48 h) | SMILES | GI50 ([12]; Homo sapiens, NCI-460, 48 h) | efficacy in inhibition of tumor cell proliferation, graded in words against I-1 (18 tumor cell strains) | inhibitory effects on tumor cell proliferation (in words) (18 tumor cell strains) | other results
7.03 µM | 3.31 µM | 8.04 µM | 2.08 µM | 2.02 µM | 11.7 µM | 3.62 µM | 3.81 µM | 7.1 µM | 13.7 µM | 14.1 µM | 2.8 µM | C#Cc1ccc(C(=O)NC(=O)OC)cc1[N+](=O)[O-] [Compound I-2, N-methoxycarbonyl-4-ethynyl-3-nitrobenzamide] | 33.8 µM | slightly lower than that of I-1 | have inhibitory effects on tumor cell proliferation | GI50 [5]: 4.24 µM; GI50 [6]: 7.42 µM; GI50 [7]: 3.44 µM; GI50 (human hepatoma HepG 2): 11.3 µM
4.32 µM | 3.79 µM | 25 µM | 6.81 µM | 3.2 µM | 4.16 µM | 4.38 µM | 15 µM | 9.9 µM | 2.48 µM | 16.3 µM | 7.03 µM | C#Cc1ccc(C(=O)NC(=O)OCC)cc1[N+](=O)[O-] [Compound I-3, N-ethoxycarbonyl-4-ethynyl-3-nitrobenzamide] | 37.3 µM | slightly lower than that of I-1 | have inhibitory effects on tumor cell proliferation | GI50 [6]: 7.5 µM; GI50 [7]: 4.03 µM; GI50 (human hepatoma HepG 2): 12 µM; GI50 ([15]; Homo sapiens, HCT-116, 48 h): 5.6 µM
9.09 µM |  |  |  |  |  |  |  |  |  |  | 20.2 µM | C#Cc1ccc(C(=O)NC(=O)OC(C)C)cc1[N+](=O)[O-] [Compound I-6, N-isopropoxycarbonyl-4-ethynyl-3-nitrobenzamide] |  | good effects on inhibition of tumor cell proliferation | have inhibitory effects on tumor cell proliferation | 
 |  | 56.8 µM |  |  |  |  | 31.3 µM |  |  |  |  | C#Cc1ccc(C(=O)N2CCNCC2)cc1[N+](=O)[O-] [Compound I-23, (4-ethynyl-3-nitrophenyl)(piperazin-1-yl)ketone] |  | slightly lower than that of I-1 | have inhibitory effects on tumor cell proliferation | GI50 ([2]; 48 h): 3.44 µM; GI50 ([4]; 48 h): 9.24 µM; GI50 (human leukemia HL-60; 48 h): 12.3 µM; GI50 [9]: 10.9 µM; GI50 [11]: 11.2 µM; GI50 ([12]; 48 h): 25.6 µM; GI50 ([13]; 48 h): 23.8 µM; GI50 ([15]; 48 h): 12.4 µM; GI50 (human leukemia K562; 48 h): 16.2 µM
 |  | 130 µM |  |  |  |  | 105 µM |  |  |  |  | CC#Cc1ccc(C(=O)NC)cc1[N+](=O)[O-] [Compound I-26, N-methyl-4-(1-propynyl)-3-nitrobenzamide] |  |  | have inhibitory effects on tumor cell proliferation | 
 | 5.84 µM |  | 5.97 µM | 9.27 µM | 3.06 µM | 10.9 µM |  | 14 µM | 18.1 µM | 10.3 µM | 15.3 µM | C#Cc1ccc(C(=O)N2CCNCC2)cc1[N+](=O)[O-].Cl [Compound I-30, (4-ethynyl-3-nitrophenyl)(piperazin-1-yl)ketone hydrochloride] | 19.5 µM | slightly lower than that of I-1 | have inhibitory effects on tumor cell proliferation | GI50 ([15]; Homo sapiens, HCT-116, 48 h): 10.3 µM

SMILES | GI50 [1] | GI50 ([2]; Homo sapiens, DU-145, 48 h) | GI50 [3] | GI50 ([4]; Homo sapiens, MCF7, 48 h) | GI50 (human leukemia HL-60; Homo sapiens, HL-60, 48 h) | GI50 [8] | GI50 ([9]; Homo sapiens, 95-D) | GI50 [10] | GI50 ([11]; Homo sapiens, HeLa) | GI50 ([13]; Homo sapiens, PANC-1, 48 h) | GI50 [14] | GI50 (human leukemia K562; Homo sapiens, K562, 48 h) | GI50 ([12]; Homo sapiens, NCI-460, 48 h) | efficacy in inhibition of tumor cell proliferation, graded in words against I-1 (18 tumor cell strains) | inhibitory effects on tumor cell proliferation (in words) (18 tumor cell strains) | other results
C#Cc1ccc(C(=O)NC(=O)OCC(C)C)cc1[N+](=O)[O-] [Compound I-7, N-isobutoxycarbonyl-4-ethynyl-3-nitrobenzamide] | 3.15 µM |  |  |  |  | 9.67 µM |  |  |  |  |  | 10.1 µM |  | good effects on inhibition of tumor cell proliferation | have inhibitory effects on tumor cell proliferation | 

From patent publication US8946478B2, “Benzamide derivative with anticancer activity and preparation method and use thereof” (Zhejiang Hisun Pharmaceutical Co., Ltd., priority 2010, dated 2015)
